Where a name gives a salt, the structure may show the parent alone.

One series concerns microtubule cytoskeleton of human CG neuroblastoma cells. Put plainly: Antimicrotubule activity, tubulin immunofluorescence microscopy. It counts as cell-based. To be noted: 2 hr at 37° C., read-out: Concentration where microtubule destabilization occurs. How it is done: The compounds of the invention according to formula I are effective in destabilizing microtubules, thus are useful in treating certain neoplastic diseases. Indirect immunofluorescence microscopy using the monoclonal antibodies to tubulin is used herein to determine the activity of the compounds of this invention in promoting depolymerization of the microtubule cytoskeleton in cultured cells. The following assay was employed.
Cultured human CG neuroblastoma cells were seeded 1:3 from confluent cultures onto sterile 11×22 mm coverslips in 6 well tissue culture plates 16 hr prior to treatment. The following day, the tissue culture medium is removed and the cells are exposed to various concentrations of compounds of this invention in Krebs Ringer Hepes (KRH) buffer containing a final concentration of 0.5% DMSO as carrier. Incubations were performed at 37° C. in a humidified 5% CO2 atmosphere for 2 hr. After incubation, the cells were fixed in 3% TEM grade formaldehyde in PBS for 45 min at room temperature.
To visualize the effects of the compounds of the invention on the microtubule cytoskeleton, the cells were processed for tubulin immunofluorescence. Briefly, the cells were permeabilized in 0.5% Triton-X 100 in PBS for 5 min. The cells were washed 2× with PBS and aldehydes reduced using 0.5 mg/ml NaBH4 in PBS for 5 min. Subsequently, the cells were blocked for 10 min in 1.5% BSA and 1.5% nonfat dry milk in PBS (blocking solution, BS) for 10 min. The cells were then incubated for 30 min at 37° C. with the monoclonal antibody Tu27B which recognizes b-tubulin (dilution 1:20 in BS). Subsequently, the cells were washed 2× in PBS and once in BS. The cells were then incubated for 30 min at 37° C. with sheep antimouse IgG conjugated to FITC. After incubation, the cells were washed 2× in PBS and once in BS and incubated for 30 min at 37° C. with rabbit antisheep IgG conjugated to FITC. The cells were rinsed in PBS, counterstained with Hoechst 33285 in PBS (1 μg/ml), and rinsed in PBS. The coverslips were mounted in 9:1 glycerol:PBS containing 1 mg/ml p-phenylenediamine and sealed with nail polish.
The cells were viewed using a Jenalumar epifluorescence microscope equipped with the proper filters for Fluorescein Isothiocyanate (FITC) excitation and emission. Lack of effect of a compound is evidenced by the presence of an intact microtubule network in interphase cells, or a mitotic spindle in dividing cells. Antineoplastic compounds of the invention at effective doses result in the disappearance of microtubules in both interphase and mitotic cells.
In the case of `Cl.Cl.O=C(CCN1CCN(Cc2ccccc2)CC1)c1cccs1` [Example 7, 1-(2″-Thienyl)-3-(4′-benzyl-1′-piperazinyl)-1-propanone dihydrochloride], the minimal effective concentration was 20 µM.
Turning to `Cl.Cl.O=C(CCN1CCN(Cc2ccccc2)CC1)c1ccc(Nc2ccc([N+](=O)[O-])cc2[N+](=O)[O-])cc1` [Example 113], the minimal effective concentration came out at 20 µM.
For the molecule `Cl.Cl.N#Cc1cccc(C(=O)CCN2CCN(Cc3ccccc3)CC2)c1` [Example 60, 1-(m-Cyanophenyl)-3-(4′-benzyl-1′-piperazinyl)-1-propanone dihydrochloride], the minimal effective concentration is given as 20 µM.
Consider `Cl.O=C(CCN1CCN(C(=O)c2c(F)cccc2F)CC1)c1ccccc1F` [Example 41, 1-(o-Fluorophenyl)-3-[4′-(2″,6″-difluorobenzoyl)1′-piperazinyl]-1-propanone hydrochloride], for which the minimal effective concentration was 20 µM.
On the same count and under the same terms, the result for `Cl.Cl.N#Cc1ccc(C(=O)CCN2CCN(Cc3ccccc3)CC2)s1` [Example 85, 1-(5″-Cyano-2″-thienyl)-3-(4′-benzyl-1′-piperazinyl)-1-propanone dihydrochloride] reads 20 µM; that for `Cl.Cl.O=C(CCN1CCN(Cc2ccccc2)CC1)c1conc1-c1ccccc1` [Example 112, 1-(3″-Phenylisoxazol-4″-yl)-3-(4′-benzyl-1′-piperazinyl)-1-propanone dihydrochloride], 20 µM.
`Cl.Cl.O=C(CCN1CCN(Cc2ccccc2)CC1)c1ccc(C2CCCCC2)cc1` [Example 27]: the minimal effective concentration is 20 µM.
The same measure, in the same setting: the result for `Cl.Cl.O=C(CCN1CCN(Cc2cc(F)ccc2F)CC1)c1ccsc1` [Example 38, 1-(3″-Thienyl)-3-[4′-(2′″,5′″-difMuorobenzyl)-1′-piperazinyl]-1-propanone dihydrochloride] reads 20 µM.

Staying with this series, now noted: Neuroblastoma cell, 2 hr at 37° C., read-out: Concentration where microtubule destabilization occurs.
Take `O=C(CCN1CCN(Cc2ccccc2)CC1)c1ccc2c(c1)CCCC2` [Example 20, 1-(1″,2″,3″,4″-Tetrahydronaphth-6″-yl)-3-(4′-benzyl-1′-piperazinyl)-1-propanone dihydrochloride]: the minimal effective concentration came out at 20 µM.
Still for that read-out and setting: in the case of `O=C(CCN1CCN(Cc2ccccc2)CC1)c1ccc(-c2ccccc2)cc1` [Example 22, 1-p-Biphenyl-3-(4′-benzyl-1′-piperazinyl)-1-propanone dihydrochloride] it was 20 µM.
On to `O=C(CCN1CCN(C(=O)c2c(F)cccc2F)CC1)c1ccc([N+](=O)[O-])cc1` [Example 40, 1-(p-Nitrophenyl)-3-[4′-(2″,6″-difluorobenzoyl)-1′-piperazinyl]-1-propanone hydrochloride], for which the minimal effective concentration is 20 µM.
Same read-out and setting: the result for `CC[C@]1(O)C[C@@H]2CN(CCc3c([nH]c4ccccc34)[C@@](C(=O)OC)(c3cc4c(cc3OC)N(C)[C@H]3[C@@](O)(C(=O)OC)[C@H](OC(C)=O)[C@]5(CC)C=CCN6CC[C@]43[C@@H]65)C2)C1` [vinblastine, reference compound] reads 0.05 µM.
On to `O=C(CCN1CCN(Cc2ccccc2)CC1)c1cc(C(F)(F)F)cc(C(F)(F)F)c1` [Example 9, 1-[3″,5″-Bis-(trifluoromethyl)phenyl]-3-(4′-benzyl-1′-piperazinyl)-1-propanone dihydrochloride], for which the minimal effective concentration came out at 20 µM.
With `O=C(CCN1CCN(Cc2ccccc2)CC1)c1ccc(C(=O)CCN2CCN(Cc3ccccc3)CC2)cc1` [Example 50], the minimal effective concentration amounted to 20 µM.
Still for that read-out and setting: in the case of `O=C(CCN1CCN(C(=O)c2ccccc2F)CC1)c1cccs1` [Example 70, 1-(2″-Thienyl)-3-[4′-(o-fluorobenzoyl)-1′-piperazinyl]-1-propanone hydrochloride] it was 20 µM.

Test system in the next series: not given
Test: not given
Conditions: not given
Consider `CS(=O)(=O)Nc1ccc(C(=O)CCN2CCN(Cc3ccccc3)CC2)cc1` (as salt: hydrochloride) [Example 26, 1-[-p-(Methanesulfonamido)phenyl]-3-(4′-benzyl-1′-piperazinyl)-1-propanone dihydrochloride], for which the melting point – broadly, the temperature of the solid-liquid transition – is 202 to 205 °C.
In turn, `O=C(CCN1CCN(Cc2ccccc2)CC1)c1cc2ccccc2o1` (as salt: hydrochloride) [Example 10, 1-(Benzofur-2″-yl)-3-(4′-benzyl-1′-piperazinyl)-1-propanone dihydrochloride] displayed a melting point of 255 to 257 °C.
For the molecule `O=C(CCN1CCN(C(c2ccccc2)c2ccc(Cl)cc2)CC1)c1cccs1` (stereo not drawn) (as salt: hydrochloride) [Example 89, 1-(2″-Thienyl)-3-[4′-(1′″-p-chlorophenyl-1′″-phenylmethyl)-1′-piperazinyl]-1-propanone dihydrochloride], the melting point fell in the range of 189 to 201 °C.
Consider `O=C(CCN1CCN(C(=O)c2ccc(I)cc2)CC1)c1ccc(N2CCOCC2)cc1` (as salt: hydrochloride) [Example 68, 1-(p-N-Morpholinophenyl)-3-[4′-p-iodobenzoyl)-1′-piperazinyl]-1-propanone dihydrochloride], for which the melting point turned out to be 240 °C.
As to `O=C(CCN1CCN(Cc2ccccc2)CC1)c1ccc2c(c1)OCCO2` (as salt: hydrochloride) [Example 19, 1-(2″,3″-Dihydro-1″,4″-benzodioxan-6″-yl)-3-(4′-benzyl-1′-piperazinyl)-1-propanone dihydrochloride], the melting point was 215 °C (dec.).
Consider `COc1ccc(C(=O)CCN2CCN(Cc3ccccc3)CC2)c2ccccc12` (as salt: hydrochloride) [Example 79, 1-(4″-Methoxy-1″-naphthalenyl)-3-(4′-benzyl-1′-piperazinyl)-1-propanone dihydrochloride], for which the melting point was 230 °C (dec.).

(Values after patent US20010025105A1, “Certain substituted 1-aryl-3-piperazine-1'-yl propanones” (Molecular Geriatarics Corporation, priority 1997, published 2001).)
